Reference: PubChem BioAssay AID330 (DTP/NCI, 2004)
Inconclusive results and toxic doses are left out. Peptide text beside a SMILES is read from it.

System: P388 leukemia ip, CD2F1 mice, survival T/C
Test: NCI In Vivo Anticancer Drug Screen. Data for tumor model P388 Leukemia (intraperitoneal) in CD2F1 (CDF1) mice
Settings: endpoint: median survival time, higher = longer survival
In short: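 Mice carrying the transplanted tumor received test compound or vehicle. Survival was recorded in each group, and the value is the treated-group measurement divided by that of the vehicle-treated control group.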

[1] = dose: 50.0 mg/kg/injection, schedule: Q01DX005 (ip), vehicle: saline with Tween-80
[2] = dose: 100.0 mg/kg/injection, schedule: Q01DX005 (ip), vehicle: saline with Tween-80
[3] = dose: 200.0 mg/kg/injection, schedule: Q01DX005 (ip), vehicle: saline with Tween-80
[4] = dose: 50.0 mg/kg/injection, schedule: Q01DX009 (ip), vehicle: saline with Tween-80
[5] = dose: 100.0 mg/kg/injection, schedule: Q01DX009 (ip), vehicle: saline with Tween-80
[6] = dose: 200.0 mg/kg/injection, schedule: Q01DX009 (ip), vehicle: saline with Tween-80

CCCCCCCCCCCCCCCC[N+](C)(C)CCNC(=O)C1CSC(C)(C)N1C=O (configuration not stated)
T/C (dose: 12.5 mg/kg/injection, schedule: Q01DX009 (ip), vehicle: saline): 106 % of control | T/C (dose: 25.0 mg/kg/injection, schedule: Q01DX009 (ip), vehicle: saline): 97 % of control

C=C1C2CCC3C(CCC4C35CCC[C@]4(C)CN3CCO[C@H]35)(C2)[C@@H]1O (some centres not stated)
T/C (dose: 4.0 mg/kg/injection, schedule: Q01DX009 (ip), vehicle: Klucel (hydroxypropylcellulose) (HPC)): 108 % of control | T/C (dose: 8.0 mg/kg/injection, schedule: Q01DX009 (ip), vehicle: Klucel (hydroxypropylcellulose) (HPC)): 110 % of control | T/C (dose: 16.0 mg/kg/injection, schedule: Q01DX009 (ip), vehicle: Klucel (hydroxypropylcellulose) (HPC)): 94 % of control | T/C (dose: 32.0 mg/kg/injection, schedule: Q01DX009 (ip), vehicle: Klucel (hydroxypropylcellulose) (HPC)): 99 % of control

Cc1[nH]nc2c1NC(=O)OCC2
T/C [1]: 101 % of control | T/C [2]: 101 % of control | T/C [3]: 101 % of control

CCNc1nc(Cl)nc(NC(C)C)n1
T/C (dose: 50.0 mg/kg/injection, schedule: Q04DX003 (ip), vehicle: saline with Tween-80): 91 % of control | T/C (dose: 100.0 mg/kg/injection, schedule: Q04DX003 (ip), vehicle: saline with Tween-80): 87 % of control | T/C (dose: 200.0 mg/kg/injection, schedule: Q04DX003 (ip), vehicle: saline with Tween-80): 91 % of control

CNC1CCc2cc(OC)ccc21 (configuration not stated)
T/C (dose: 50.0 mg/kg/injection, schedule: Q01DX001 (ip), vehicle: Klucel (hydroxypropylcellulose) (HPC)): 107 % of control | T/C (dose: 100.0 mg/kg/injection, schedule: Q01DX001 (ip), vehicle: Klucel (hydroxypropylcellulose) (HPC)): 102 % of control

CN(C)C(=S)SCc1ccc(C(=O)O)nc1
T/C [4]: 99 % of control | T/C [5]: 98 % of control

CC(CN=C(CC(=O)c1ccccc1)c1ccccc1)N=C(CC(=O)c1ccccc1)c1ccccc1.[Cu] (configuration not stated)
T/C [4]: 100 % of control | T/C [5]: 106 % of control | T/C [6]: 91 % of control

O=C(O)/C(=C\c1ccncc1)c1cccc2ccccc12
T/C [4]: 101 % of control | T/C [5]: 101 % of control | T/C [6]: 111 % of control | T/C (dose: 400.0 mg/kg/injection, schedule: Q01DX009 (ip), vehicle: saline with Tween-80): 98 % of control

COC(=O)C1CSC(c2c(CO)cnc(C)c2O)N1 (configuration not stated)
T/C (dose: 100.0 mg/kg/injection, schedule: Q04DX002 (ip), vehicle: saline + Tween-80 + alcohol): 105 % of control | T/C (dose: 200.0 mg/kg/injection, schedule: Q04DX002 (ip), vehicle: saline + Tween-80 + alcohol): 96 % of control | T/C (dose: 400.0 mg/kg/injection, schedule: Q04DX002 (ip), vehicle: saline + Tween-80 + alcohol): 107 % of control

OCC1CCC2CCCCC2N1 (configuration not stated)
T/C (dose: 50.0 mg/kg/injection, schedule: Q01DX005 (ip), vehicle: saline): 104 % of control | T/C (dose: 100.0 mg/kg/injection, schedule: Q01DX005 (ip), vehicle: saline): 102 % of control | T/C (dose: 200.0 mg/kg/injection, schedule: Q01DX005 (ip), vehicle: saline): 101 % of control

COc1ccc(C2(C)C(C#N)(C#N)C2(C#N)C#N)cc1
T/C (dose: 18.75 mg/kg/injection, schedule: Q01DX009 (ip), vehicle: saline): 103 % of control | T/C (dose: 37.5 mg/kg/injection, schedule: Q01DX009 (ip), vehicle: saline): 100 % of control | T/C (dose: 75.0 mg/kg/injection, schedule: Q01DX009 (ip), vehicle: saline): 116 % of control | T/C (dose: 150.0 mg/kg/injection, schedule: Q01DX009 (ip), vehicle: saline): 111 % of control

Nc1[nH]c(=O)nc2sc3ccccc3c12
T/C [1]: 102 % of control | T/C [2]: 105 % of control | T/C [3]: 102 % of control

O=C(Nc1ccccc1)ON=C1CCCCC1
T/C (dose: 60.0 mg/kg/injection, schedule: Q01DX005 (ip), vehicle: saline with Tween-80): 101 % of control | T/C (dose: 120.0 mg/kg/injection, schedule: Q01DX005 (ip), vehicle: saline with Tween-80): 96 % of control | T/C (dose: 240.0 mg/kg/injection, schedule: Q01DX005 (ip), vehicle: saline with Tween-80): 99 % of control

NC(Cc1cnc[nH]1)C(=O)NC(CO)C(=O)O (stereo not drawn) (H-His-Ser-OH; configuration not given here)
T/C (dose: 60.0 mg/kg/injection, schedule: Q01DX005 (ip), vehicle: saline): 96 % of control | T/C (dose: 120.0 mg/kg/injection, schedule: Q01DX005 (ip), vehicle: saline): 99 % of control | T/C (dose: 240.0 mg/kg/injection, schedule: Q01DX005 (ip), vehicle: saline): 100 % of control

CCCCCCC(Nc1ncnc(Cl)c1N)C(C)O (configuration not stated)
T/C (dose: 12.5 mg/kg/injection, schedule: Q01DX009 (ip), vehicle: saline with Tween-80): 97 % of control | T/C (dose: 25.0 mg/kg/injection, schedule: Q01DX009 (ip), vehicle: saline with Tween-80): 100 % of control

C[CH2][Ge]([Cl])([CH2]C)[c]1cc[c]([Ge]([Cl])([CH2]C)[CH2]C)cc1
T/C (dose: 50.0 mg/kg/injection, schedule: Q01DX005 (ip), vehicle: Klucel (hydroxypropylcellulose) (HPC)): 98 % of control | T/C (dose: 100.0 mg/kg/injection, schedule: Q01DX005 (ip), vehicle: Klucel (hydroxypropylcellulose) (HPC)): 96 % of control | T/C (dose: 200.0 mg/kg/injection, schedule: Q01DX005 (ip), vehicle: Klucel (hydroxypropylcellulose) (HPC)): 99 % of control
